From ChEMBL document CHEMBL1909046, “DrugMatrix in vitro pharmacology data” come the findings set out here.

SMILES strings stand for the structures.

The target of the first data set is Cytochrome P450 2C19 (Homo sapiens, UniProt P33261). Also: in other assays of this panel Not Active means under 50% inhibition at 10 µM.
Cytochrome P450 2C19, sequence (P33261 whole entry): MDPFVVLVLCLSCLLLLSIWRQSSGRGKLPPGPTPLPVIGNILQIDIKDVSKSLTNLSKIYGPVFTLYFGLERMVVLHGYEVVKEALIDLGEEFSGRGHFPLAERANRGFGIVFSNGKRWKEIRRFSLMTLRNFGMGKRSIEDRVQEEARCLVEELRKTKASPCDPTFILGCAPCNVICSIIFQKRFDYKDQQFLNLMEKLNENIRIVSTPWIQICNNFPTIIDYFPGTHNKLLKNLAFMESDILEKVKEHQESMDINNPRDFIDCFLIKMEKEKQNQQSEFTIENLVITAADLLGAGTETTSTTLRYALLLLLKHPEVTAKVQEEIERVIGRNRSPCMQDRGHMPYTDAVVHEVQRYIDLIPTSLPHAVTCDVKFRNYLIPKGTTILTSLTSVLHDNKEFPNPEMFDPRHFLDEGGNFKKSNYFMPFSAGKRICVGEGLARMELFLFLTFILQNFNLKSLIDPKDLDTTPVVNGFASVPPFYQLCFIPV
Assay: not given
To be noted: bti-tn-5b1-4.
In the case of `CC(C)CC(N(C)C)C1(c2ccc(Cl)cc2)CCC1` (stereo unspecified) [SIBUTRAMINE], the IC50 result is recorded as “Not Active” and the Ki entry was “Not Active”.
`CC(C)(C)c1ccc(C(O)CCCN2CCC(C(O)(c3ccccc3)c3ccccc3)CC2)cc1` (stereo unspecified) [TERFENADINE]: the IC50 entry is listed as “Not Active” and the Ki result was “Not Active”.

A further data set has as its target T1, B2 bradykinin receptor (Homo sapiens, UniProt P30411). Also: in other assays of this panel Not Active means under 50% inhibition at 10 µM.
T1 sequence (P30411 whole entry): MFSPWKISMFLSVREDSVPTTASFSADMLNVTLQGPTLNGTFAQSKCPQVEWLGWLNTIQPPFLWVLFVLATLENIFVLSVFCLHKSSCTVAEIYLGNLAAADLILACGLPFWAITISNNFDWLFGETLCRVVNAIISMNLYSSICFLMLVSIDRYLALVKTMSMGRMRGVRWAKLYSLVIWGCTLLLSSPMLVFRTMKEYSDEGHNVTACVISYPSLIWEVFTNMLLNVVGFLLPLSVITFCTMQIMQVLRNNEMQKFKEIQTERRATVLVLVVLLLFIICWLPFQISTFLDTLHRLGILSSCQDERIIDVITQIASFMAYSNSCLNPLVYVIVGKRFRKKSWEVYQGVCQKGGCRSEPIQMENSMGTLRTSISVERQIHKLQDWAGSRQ
Assay: not given
It is filed as cell membranes, Membrane. To be noted: chem-1.
As to `C=CCN1CC[C@]23c4c5ccc(O)c4O[C@H]2C(=O)CC[C@@]3(O)[C@H]1C5` [NALOXONE], the IC50 result is recorded as “Not Active”.
For `CC(C)CC(N(C)C)C1(c2ccc(Cl)cc2)CCC1` (stereo unspecified) [SIBUTRAMINE], the IC50 entry is recorded as “Not Active”.
As for `CC(C)(C)c1ccc(C(O)CCCN2CCC(C(O)(c3ccccc3)c3ccccc3)CC2)cc1` (stereo unspecified) [TERFENADINE], the IC50 entry is “Not Active”.

For another data set, the target named is T2, Muscarinic acetylcholine receptor M2 (Homo sapiens, UniProt P08172). Also: in other assays of this panel Not Active means under 50% inhibition at 10 µM.
T2 sequence (P08172 whole entry): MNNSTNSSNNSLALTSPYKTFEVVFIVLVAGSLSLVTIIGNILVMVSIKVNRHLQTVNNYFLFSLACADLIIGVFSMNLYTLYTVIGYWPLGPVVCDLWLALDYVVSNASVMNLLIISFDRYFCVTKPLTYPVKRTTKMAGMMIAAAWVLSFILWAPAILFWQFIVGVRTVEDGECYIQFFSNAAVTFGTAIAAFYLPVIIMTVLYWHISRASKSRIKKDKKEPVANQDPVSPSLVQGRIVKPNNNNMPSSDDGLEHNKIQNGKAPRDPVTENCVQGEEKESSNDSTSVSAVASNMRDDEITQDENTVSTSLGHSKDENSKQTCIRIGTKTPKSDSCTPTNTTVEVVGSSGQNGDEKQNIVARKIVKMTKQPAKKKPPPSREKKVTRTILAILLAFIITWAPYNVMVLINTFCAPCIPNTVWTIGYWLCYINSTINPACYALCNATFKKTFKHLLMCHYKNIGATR
Assay: not given
It is filed as cell membranes, CHO-K1, Membrane. The following applies: cho-k1.
For `C=CCN1CC[C@]23c4c5ccc(O)c4O[C@H]2C(=O)CC[C@@]3(O)[C@H]1C5` [NALOXONE], the IC50 entry is reported as “Not Active”.
For the compound `CC(C)CC(N(C)C)C1(c2ccc(Cl)cc2)CCC1` (stereo unspecified) [SIBUTRAMINE], the IC50 result is given as “Not Active”.
Consider `CC(C)(C)c1ccc(C(O)CCCN2CCC(C(O)(c3ccccc3)c3ccccc3)CC2)cc1` (stereo unspecified) [TERFENADINE], for which the IC50 entry was “Not Active”.

A further data set has as its target T3, 5-hydroxytryptamine receptor 1A (Rattus norvegicus, UniProt P19327). Also: in other assays of this panel Not Active means under 50% inhibition at 10 µM.
T3 sequence (P19327 whole entry): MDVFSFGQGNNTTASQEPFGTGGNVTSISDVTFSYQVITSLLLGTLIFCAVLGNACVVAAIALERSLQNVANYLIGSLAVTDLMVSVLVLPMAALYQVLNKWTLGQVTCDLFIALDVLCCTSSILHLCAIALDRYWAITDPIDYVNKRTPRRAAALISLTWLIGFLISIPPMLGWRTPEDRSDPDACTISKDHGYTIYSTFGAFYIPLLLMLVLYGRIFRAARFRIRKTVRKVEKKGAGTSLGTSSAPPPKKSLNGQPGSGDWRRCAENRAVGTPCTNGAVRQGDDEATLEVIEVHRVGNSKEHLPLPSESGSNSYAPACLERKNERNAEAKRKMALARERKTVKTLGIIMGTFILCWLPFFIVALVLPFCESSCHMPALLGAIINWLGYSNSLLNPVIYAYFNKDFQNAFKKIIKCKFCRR
Assay: not given
It is filed as cell membranes, Membrane. To be noted: cho-k1.
Turning to `C=CCN1CC[C@]23c4c5ccc(O)c4O[C@H]2C(=O)CC[C@@]3(O)[C@H]1C5` [NALOXONE], the IC50 result is “Not Active”.
The same measure, in the same setting: under `CC(C)CC(N(C)C)C1(c2ccc(Cl)cc2)CCC1` (stereo unspecified) [SIBUTRAMINE] stands “Not Active”.
Still for that read-out and setting: then `CC(C)(C)c1ccc(C(O)CCCN2CCC(C(O)(c3ccccc3)c3ccccc3)CC2)cc1` (stereo unspecified) [TERFENADINE], with “Not Active”.

The next data set deals with T4, Interstitial collagenase (Homo sapiens, UniProt P03956).
T4 sequence (P03956 whole entry): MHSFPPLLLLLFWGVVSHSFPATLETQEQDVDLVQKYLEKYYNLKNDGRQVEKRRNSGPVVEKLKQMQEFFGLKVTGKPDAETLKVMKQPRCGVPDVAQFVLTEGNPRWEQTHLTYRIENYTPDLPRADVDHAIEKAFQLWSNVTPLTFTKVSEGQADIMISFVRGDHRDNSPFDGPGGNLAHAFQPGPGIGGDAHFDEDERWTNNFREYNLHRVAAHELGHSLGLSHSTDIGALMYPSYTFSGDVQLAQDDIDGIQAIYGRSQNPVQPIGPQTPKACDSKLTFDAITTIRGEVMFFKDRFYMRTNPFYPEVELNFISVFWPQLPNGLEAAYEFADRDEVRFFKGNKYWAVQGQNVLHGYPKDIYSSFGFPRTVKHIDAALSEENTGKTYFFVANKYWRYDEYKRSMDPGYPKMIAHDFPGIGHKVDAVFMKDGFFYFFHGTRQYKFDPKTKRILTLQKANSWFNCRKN
The data set is described as follows: biochemical. It is filed as tissue-based, Rheumatoid synovial fibroblasts.
Settings: not given
For the compound `C=CCN1CC[C@]23c4c5ccc(O)c4O[C@H]2C(=O)CC[C@@]3(O)[C@H]1C5` [NALOXONE], the IC50 result is on record as “Not Active”.
Consider `CC(C)CC(N(C)C)C1(c2ccc(Cl)cc2)CCC1` (stereo unspecified) [SIBUTRAMINE], for which the IC50 result is reported as “Not Active”.
Consider `CC(C)(C)c1ccc(C(O)CCCN2CCC(C(O)(c3ccccc3)c3ccccc3)CC2)cc1` (stereo unspecified) [TERFENADINE], for which the IC50 result was “Not Active”.

The target in a further data set is T5, Adenosine receptor A1 (Homo sapiens, UniProt P30542).
T5 sequence (P30542 whole entry): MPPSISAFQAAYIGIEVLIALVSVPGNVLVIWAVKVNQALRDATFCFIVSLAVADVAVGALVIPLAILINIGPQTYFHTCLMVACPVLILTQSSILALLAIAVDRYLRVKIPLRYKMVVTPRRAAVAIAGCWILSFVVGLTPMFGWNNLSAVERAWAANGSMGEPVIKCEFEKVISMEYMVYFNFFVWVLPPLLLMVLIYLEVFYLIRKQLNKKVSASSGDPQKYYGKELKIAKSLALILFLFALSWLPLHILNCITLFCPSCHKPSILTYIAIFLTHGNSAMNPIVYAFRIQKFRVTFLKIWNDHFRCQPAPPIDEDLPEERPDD
Assay: not given
The following applies: cho. It is filed as cell membranes, Membrane.
`C=CCN1CC[C@]23c4c5ccc(O)c4O[C@H]2C(=O)CC[C@@]3(O)[C@H]1C5` [NALOXONE]: the IC50 result was “Not Active”.
Turning to `CC(C)CC(N(C)C)C1(c2ccc(Cl)cc2)CCC1` (stereo unspecified) [SIBUTRAMINE], the IC50 result is listed as “Not Active”.
As for `CC(C)(C)c1ccc(C(O)CCCN2CCC(C(O)(c3ccccc3)c3ccccc3)CC2)cc1` (stereo unspecified) [TERFENADINE], the IC50 result is reported as “Not Active”.

The target in another data set is Cytochrome P450 3A4 (Homo sapiens, UniProt P08684). Also: in other assays of this panel Not Active means under 50% inhibition at 10 µM.
Cytochrome P450 3A4, sequence (P08684 whole entry): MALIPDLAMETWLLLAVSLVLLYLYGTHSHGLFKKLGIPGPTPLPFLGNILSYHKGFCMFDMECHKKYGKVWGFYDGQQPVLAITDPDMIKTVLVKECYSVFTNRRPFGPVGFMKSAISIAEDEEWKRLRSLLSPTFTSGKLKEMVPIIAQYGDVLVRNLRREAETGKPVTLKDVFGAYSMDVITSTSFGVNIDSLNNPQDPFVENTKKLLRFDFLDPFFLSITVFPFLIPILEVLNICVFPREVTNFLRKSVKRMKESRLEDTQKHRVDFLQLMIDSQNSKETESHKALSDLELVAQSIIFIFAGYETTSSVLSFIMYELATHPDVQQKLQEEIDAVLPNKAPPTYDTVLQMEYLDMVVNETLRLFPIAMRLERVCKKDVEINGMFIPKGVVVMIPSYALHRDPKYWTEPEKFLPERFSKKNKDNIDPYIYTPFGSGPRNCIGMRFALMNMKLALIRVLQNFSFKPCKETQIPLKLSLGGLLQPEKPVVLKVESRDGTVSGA
Assay: not given
The following applies: bti-tn-5b1-4.
Turning to `CC(C)CC(N(C)C)C1(c2ccc(Cl)cc2)CCC1` (stereo unspecified) [SIBUTRAMINE], the IC50 result is reported as “Not Active” and the Ki entry is listed as “Not Active”.
As for `CC(C)(C)c1ccc(C(O)CCCN2CCC(C(O)(c3ccccc3)c3ccccc3)CC2)cc1` (stereo unspecified) [TERFENADINE], the IC50 entry is listed as “Not Active” and the Ki entry is given as “Not Active”.

System in another data set: not listed separately
The data set is described as follows: DRUGMATRIX: Tumor Necrosis Factor (TNF), Non-Selective radioligand binding (ligand: [125I] TNF-alpha). It counts as cell membranes, Membrane. The following applies: u-937; Not Active = under 50% inhibition at 10 µM.
In the case of `CC(C)CC(N(C)C)C1(c2ccc(Cl)cc2)CCC1` (stereo unspecified) [SIBUTRAMINE], the IC50 result was “Not Active” and the Ki entry is listed as “Not Active”.
As for `CC(C)(C)c1ccc(C(O)CCCN2CCC(C(O)(c3ccccc3)c3ccccc3)CC2)cc1` (stereo unspecified) [TERFENADINE], the IC50 result is “Not Active” and the Ki result was “Not Active”.

The target in a further data set is Sodium-dependent noradrenaline transporter (Homo sapiens, UniProt P23975). Put plainly: DRUGMATRIX: Norepinephrine Transporter radioligand binding (ligand: [125I] RTI-55). It counts as cell membranes, MDCK, Membrane. The following applies: mdck; Not Active = under 50% inhibition at 10 µM.
Sodium-dependent noradrenaline transporter, sequence (P23975 whole entry): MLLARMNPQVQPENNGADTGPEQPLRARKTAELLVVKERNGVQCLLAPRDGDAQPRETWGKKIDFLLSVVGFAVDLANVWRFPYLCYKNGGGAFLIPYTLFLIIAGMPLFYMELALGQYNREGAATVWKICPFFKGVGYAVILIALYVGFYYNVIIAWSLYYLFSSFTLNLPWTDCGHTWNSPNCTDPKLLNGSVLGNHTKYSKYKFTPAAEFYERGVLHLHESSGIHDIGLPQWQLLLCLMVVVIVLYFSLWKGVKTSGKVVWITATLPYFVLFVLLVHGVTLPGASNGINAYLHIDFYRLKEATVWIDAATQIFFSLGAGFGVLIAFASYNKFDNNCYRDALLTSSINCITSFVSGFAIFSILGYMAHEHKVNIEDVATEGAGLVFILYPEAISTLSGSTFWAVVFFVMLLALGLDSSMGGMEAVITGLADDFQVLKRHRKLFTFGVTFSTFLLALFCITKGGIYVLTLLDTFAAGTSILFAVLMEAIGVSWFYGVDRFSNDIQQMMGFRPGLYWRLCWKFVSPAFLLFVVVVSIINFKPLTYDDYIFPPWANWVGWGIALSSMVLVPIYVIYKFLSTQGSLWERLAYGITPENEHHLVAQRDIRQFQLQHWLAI
`C=CCN1CC[C@]23c4c5ccc(O)c4O[C@H]2C(=O)CC[C@@]3(O)[C@H]1C5` [NALOXONE]: the IC50 entry is “Not Active”.

In another data set the target is T6, Caspase-1 (Homo sapiens, UniProt P29466).
T6 sequence (P29466 whole entry): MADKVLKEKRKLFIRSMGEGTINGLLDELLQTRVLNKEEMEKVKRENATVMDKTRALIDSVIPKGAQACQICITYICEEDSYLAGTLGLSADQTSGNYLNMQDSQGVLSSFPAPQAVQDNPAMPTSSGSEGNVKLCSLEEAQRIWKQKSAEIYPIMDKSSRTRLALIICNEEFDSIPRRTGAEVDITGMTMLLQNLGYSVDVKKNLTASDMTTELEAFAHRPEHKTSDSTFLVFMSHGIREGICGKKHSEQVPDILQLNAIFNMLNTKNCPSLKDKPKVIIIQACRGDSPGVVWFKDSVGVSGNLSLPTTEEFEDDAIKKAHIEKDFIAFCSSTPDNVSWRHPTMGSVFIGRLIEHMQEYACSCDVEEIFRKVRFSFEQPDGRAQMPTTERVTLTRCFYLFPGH
Assay: not given
Settings: not given
Also on record: species or system Escherichia coli.
As for `C=CCN1CC[C@]23c4c5ccc(O)c4O[C@H]2C(=O)CC[C@@]3(O)[C@H]1C5` [NALOXONE], the IC50 entry is reported as “Not Active”.
`CC(C)CC(N(C)C)C1(c2ccc(Cl)cc2)CCC1` (stereo unspecified) [SIBUTRAMINE]: the IC50 result is recorded as “Not Active”.
For `CC(C)(C)c1ccc(C(O)CCCN2CCC(C(O)(c3ccccc3)c3ccccc3)CC2)cc1` (stereo unspecified) [TERFENADINE], the IC50 entry is “Not Active”.
